Test system: eNOS
Experiment: eNOS protein abundance in HUVECs by immunochemical methods (Example 2)
Format: cell-based, human
Conditions: for Fold difference eNOS protein abundance (mean ± sd): (LA-419 5 μM)/(control); for eNOS protein abundance Fold difference (mean ± sd): LA-419 5 μM / control; for eNOS protein abundance Net increase (mean ± sd): avg 5 μM LA-419 − avg Cntl
Excerpt: eNOS Activity and Protein Abundance Measurements
Using immunochemical methods, there was no change in any condition in relation to eNOS protein abundance, Tables ss-L1.

CC(=O)SC1COC2C(O[N+](=O)[O-])COC12 (stereo not drawn) [LA-419, S-(6-Nitro-oxi-hexahydro-furo[3,2-b]furan-3-1-il)thioacetate]
Fold difference eNOS protein abundance (mean ± sd) (Intron 4 b/a, a/a, c/c, n=14): 1.00 (0.09)
Fold difference eNOS protein abundance (mean ± sd) (Intron 4 b/a, n=10): 1.01 (0.10)
Fold difference eNOS protein abundance (mean ± sd) (Intron 4 b/b, b/a, c/c, n=42): 0.99 (0.08)
Fold difference eNOS protein abundance (mean ± sd) (Intron 4 b/b, n=31): 0.98 (0.07)
Fold difference eNOS protein abundance (mean ± sd) (Intron 4 c/c, n=1): 0.94 (0)
Fold difference eNOS protein abundance (mean ± sd) (T786C T/T & T/C, n=45): 0.99 (0.08)
Fold difference eNOS protein abundance (mean ± sd) (T-786C C/C, n=4): 0.93 (0.06)
Fold difference eNOS protein abundance (mean ± sd) (T-786C T/C & C/C, n=27): 0.99 (0.09)
Fold difference eNOS protein abundance (mean ± sd) (T-786C T/C, n=23): 1.00 (0.09)
Fold difference eNOS protein abundance (mean ± sd) (T-786C T/T, n=22): 0.99 (0.06)
eNOS protein abundance Fold difference (mean ± sd) (Caucasian, G894T + T-786C variant G/G + T/C (n=3), Table K): 1.10 (0.05)
eNOS protein abundance Fold difference (mean ± sd) (Caucasian, G894T + T-786C variant G/G + T/T (n=7), reference group, Table K): 1.04 (0.04)
eNOS protein abundance Fold difference (mean ± sd) (Caucasian, G894T + T-786C variant G/T + T/C (n=10), Table K): 1.00 (0.08)
eNOS protein abundance Fold difference (mean ± sd) (Caucasian, G894T + T-786C variant G/T + T/T (n=3), Table K): 1.02 (0.09)
eNOS protein abundance Fold difference (mean ± sd) (Caucasian, G894T + T-786C variant T/T + T/C (n=2), Table K): 1.04 (0.01)
eNOS protein abundance Fold difference (mean ± sd) (Caucasian, G894T variant G/G (n=10), major allele homozygotes, Table J): 1.06 (0.05)
eNOS protein abundance Fold difference (mean ± sd) (Caucasian, G894T variant G/G (n=10), Table I): 1.06 (0.05)
eNOS protein abundance Fold difference (mean ± sd) (Caucasian, G894T variant G/T & T/T (n=16), minor allele carriers, Table J): 1.01 (0.07)
eNOS protein abundance Fold difference (mean ± sd) (Caucasian, G894T variant G/T (n=13), Table I): 1.00 (0.08)
eNOS protein abundance Fold difference (mean ± sd) (Caucasian, G894T variant T/T (n=3), Table I): 1.03 (0.02)
eNOS protein abundance Fold difference (mean ± sd) (Caucasian, Genotype Combination = all minor allele carriers (n=19), Table L): 1.02 (0.08)
eNOS protein abundance Fold difference (mean ± sd) (Caucasian, Genotype Reference = G/G + T/T (n=7), Table L): 1.04 (0.04)
eNOS protein abundance Fold difference (mean ± sd) (Caucasian, Intron 4 variant b/a & a/a (n=6), minor allele carriers, Table J): 1.08 (0.06)
eNOS protein abundance Fold difference (mean ± sd) (Caucasian, Intron 4 variant b/a (n=5), Table I): 1.07 (0.06)
eNOS protein abundance Fold difference (mean ± sd) (Caucasian, Intron 4 variant b/b (n=18), major allele homozygotes, Table J): 1.00 (0.06)
eNOS protein abundance Fold difference (mean ± sd) (Caucasian, Intron 4 variant b/b (n=18), Table I): 1.00 (0.06)
eNOS protein abundance Fold difference (mean ± sd) (Caucasian, T-786C variant T/C & C/C (n=16), minor allele carriers, Table J): 1.02 (0.08)
eNOS protein abundance Fold difference (mean ± sd) (Caucasian, T-786C variant T/C (n=15), Table I): 1.02 (0.08)
eNOS protein abundance Fold difference (mean ± sd) (Caucasian, T-786C variant T/T (n=10), major allele homozygotes, Table J): 1.03 (0.06)
eNOS protein abundance Fold difference (mean ± sd) (Caucasian, T-786C variant T/T (n=10), Table I): 1.03 (0.06)
eNOS protein abundance Fold difference (mean ± sd) (G894T + T-786C variant T/T + C/C (n=1), Table K): 1.01 (0)
eNOS protein abundance Fold difference (mean ± sd) (Intron 4 variant a/a (n=1), Table I): 1.14 (0)
eNOS protein abundance Fold difference (mean ± sd) (T-786C variant C/C (n=1), Table I): 1.01 (0)
eNOS protein abundance (any condition, Tables ss-L1): no change
eNOS protein abundance Net increase (mean ± sd) (Combination of all G894T + T786C genotypes but G/G + T/T, n=31): −0.12 (0.53) pg/ug
eNOS protein abundance Net increase (mean ± sd) (G894T + T786C G/G + T/C, n=8): −0.17 (0.77) pg/ug
eNOS protein abundance Net increase (mean ± sd) (G894T + T786C G/G + T/T, n=18): −0.09 (0.35) pg/ug
eNOS protein abundance Net increase (mean ± sd) (G894T + T786C G/T + C/C, n=1): −0.99 (0) pg/ug
eNOS protein abundance Net increase (mean ± sd) (G894T + T786C G/T + T/C, n=13): −0.03 (0.42) pg/ug
eNOS protein abundance Net increase (mean ± sd) (G894T + T786C G/T + T/T, n=4): −0.03 (0.46) pg/ug
eNOS protein abundance Net increase (mean ± sd) (G894T + T786C T/T + C/C, n=3): −0.41 (0.46) pg/ug
eNOS protein abundance Net increase (mean ± sd) (G894T + T786C T/T + T/C, n=2): 0.17 (0.02) pg/ug
eNOS protein abundance Net increase (mean ± sd) (G894T G/G, n=26): −0.12 (0.50) pg/ug
eNOS protein abundance Net increase (mean ± sd) (G894T G/T & T/T, n=23): −0.10 (0.45) pg/ug
eNOS protein abundance Net increase (mean ± sd) (G894T G/T, n=18): −0.08 (0.46) pg/ug
eNOS protein abundance Net increase (mean ± sd) (G894T T/T, n=5): −0.18 (0.45) pg/ug
eNOS protein abundance Net increase (mean ± sd) (Intron 4 a/a, n=3): −0.05 (0.69) pg/ug
eNOS protein abundance Net increase (mean ± sd) (Intron 4 b/a, a/a, c/c, n=14): −0.05 (0.55) pg/ug
eNOS protein abundance Net increase (mean ± sd) (Intron 4 b/a, n=10): −0.02 (0.56) pg/ug
eNOS protein abundance Net increase (mean ± sd) (Intron 4 b/b, n=31): −0.14 (0.45) pg/ug
eNOS protein abundance Net increase (mean ± sd) (Intron 4 c/c, n=1): −0.44 (0) pg/ug
eNOS protein abundance Net increase (mean ± sd) (T786C C/C, n=4): −0.55 (0.47) pg/ug
eNOS protein abundance Net increase (mean ± sd) (T786C T/C & C/C, n=27): −0.13 (0.55) pg/ug
eNOS protein abundance Net increase (mean ± sd) (T786C T/C, n=23): −0.06 (0.54) pg/ug
eNOS protein abundance Net increase (mean ± sd) (T786C T/T, n=22): −0.08 (0.36) pg/ug

— patent publication US20130131161A1, “METHODS AND COMPOSITIONS FOR CARDIOVASCULAR DISEASES AND CONDITIONS” (priority 2009, published 2013)
